Assays:
KARPAS-299 [1] = assay: cells; settings: Homo sapiens, KARPAS-299, 72 h
Description: Antiproliferative activity against human KARPAS299 cells expressing NMP-ALK assessed as reduction in cell viability incubated for 72 hrs by MTT assay

SH-SY5Y = assay: cells; settings: Homo sapiens, 72 h
Description: Antiproliferative activity against human SH-SY5Y cells expressing ALK F1174L mutant assessed as reduction in cell viability incubated for 72 hrs by MTT assay

cells = settings: Homo sapiens, SKNBE2, 72 h
Description: Antiproliferative activity against human SK-N-BE(2) cells expressing wild type ALK assessed as reduction in cell viability incubated for 72 hrs by MTT assay

NCI-H2228 = assay: cells; settings: Homo sapiens, NCI-H2228, 72 h
Description: Antiproliferative activity against human NCI-H2228 cells expressing EML4-ALK assessed as reduction in cell viability incubated for 72 hrs by MTT assay

KARPAS-299 [2] = assay: Cell cycle arrest in human KARPAS299 cells expressing […] assessed as accumulation of cells at G1 phase at 1 uM incubated for 48 hrs by propidium iodide staining based flow cytometry (reference value: 58.94%); format: functional
KARPAS-299 [3] = assay: Cell cycle arrest in human KARPAS299 cells expressing […] assessed as accumulation of cells at G2 phase at 1 uM incubated for 48 hrs by propidium iodide staining based flow cytometry (reference value: 3.68%); format: functional
[4] = target: Proto-oncogene tyrosine-protein kinase ROS (Homo sapiens, UniProt P08922); assay: Inhibition of recombinant human N-terminal GST-tagged ROS (1883 to 2347 residues) expressed in baculovirus expression system using IRS1 as substrate incubated with enzyme and substrate for 5 mins followed by ATP addition followed by further incubation for 30 mins by HTRF assay
KARPAS-299 [5] = assay: Cell cycle arrest in human KARPAS299 cells expressing […] assessed as accumulation of cells at S phase at 1 uM incubated for 48 hrs by propidium iodide staining based flow cytometry (reference value: 28.83%); format: functional

Chain of Proto-oncogene tyrosine-protein kinase ROS (P08922 whole entry, the tested form may be a part): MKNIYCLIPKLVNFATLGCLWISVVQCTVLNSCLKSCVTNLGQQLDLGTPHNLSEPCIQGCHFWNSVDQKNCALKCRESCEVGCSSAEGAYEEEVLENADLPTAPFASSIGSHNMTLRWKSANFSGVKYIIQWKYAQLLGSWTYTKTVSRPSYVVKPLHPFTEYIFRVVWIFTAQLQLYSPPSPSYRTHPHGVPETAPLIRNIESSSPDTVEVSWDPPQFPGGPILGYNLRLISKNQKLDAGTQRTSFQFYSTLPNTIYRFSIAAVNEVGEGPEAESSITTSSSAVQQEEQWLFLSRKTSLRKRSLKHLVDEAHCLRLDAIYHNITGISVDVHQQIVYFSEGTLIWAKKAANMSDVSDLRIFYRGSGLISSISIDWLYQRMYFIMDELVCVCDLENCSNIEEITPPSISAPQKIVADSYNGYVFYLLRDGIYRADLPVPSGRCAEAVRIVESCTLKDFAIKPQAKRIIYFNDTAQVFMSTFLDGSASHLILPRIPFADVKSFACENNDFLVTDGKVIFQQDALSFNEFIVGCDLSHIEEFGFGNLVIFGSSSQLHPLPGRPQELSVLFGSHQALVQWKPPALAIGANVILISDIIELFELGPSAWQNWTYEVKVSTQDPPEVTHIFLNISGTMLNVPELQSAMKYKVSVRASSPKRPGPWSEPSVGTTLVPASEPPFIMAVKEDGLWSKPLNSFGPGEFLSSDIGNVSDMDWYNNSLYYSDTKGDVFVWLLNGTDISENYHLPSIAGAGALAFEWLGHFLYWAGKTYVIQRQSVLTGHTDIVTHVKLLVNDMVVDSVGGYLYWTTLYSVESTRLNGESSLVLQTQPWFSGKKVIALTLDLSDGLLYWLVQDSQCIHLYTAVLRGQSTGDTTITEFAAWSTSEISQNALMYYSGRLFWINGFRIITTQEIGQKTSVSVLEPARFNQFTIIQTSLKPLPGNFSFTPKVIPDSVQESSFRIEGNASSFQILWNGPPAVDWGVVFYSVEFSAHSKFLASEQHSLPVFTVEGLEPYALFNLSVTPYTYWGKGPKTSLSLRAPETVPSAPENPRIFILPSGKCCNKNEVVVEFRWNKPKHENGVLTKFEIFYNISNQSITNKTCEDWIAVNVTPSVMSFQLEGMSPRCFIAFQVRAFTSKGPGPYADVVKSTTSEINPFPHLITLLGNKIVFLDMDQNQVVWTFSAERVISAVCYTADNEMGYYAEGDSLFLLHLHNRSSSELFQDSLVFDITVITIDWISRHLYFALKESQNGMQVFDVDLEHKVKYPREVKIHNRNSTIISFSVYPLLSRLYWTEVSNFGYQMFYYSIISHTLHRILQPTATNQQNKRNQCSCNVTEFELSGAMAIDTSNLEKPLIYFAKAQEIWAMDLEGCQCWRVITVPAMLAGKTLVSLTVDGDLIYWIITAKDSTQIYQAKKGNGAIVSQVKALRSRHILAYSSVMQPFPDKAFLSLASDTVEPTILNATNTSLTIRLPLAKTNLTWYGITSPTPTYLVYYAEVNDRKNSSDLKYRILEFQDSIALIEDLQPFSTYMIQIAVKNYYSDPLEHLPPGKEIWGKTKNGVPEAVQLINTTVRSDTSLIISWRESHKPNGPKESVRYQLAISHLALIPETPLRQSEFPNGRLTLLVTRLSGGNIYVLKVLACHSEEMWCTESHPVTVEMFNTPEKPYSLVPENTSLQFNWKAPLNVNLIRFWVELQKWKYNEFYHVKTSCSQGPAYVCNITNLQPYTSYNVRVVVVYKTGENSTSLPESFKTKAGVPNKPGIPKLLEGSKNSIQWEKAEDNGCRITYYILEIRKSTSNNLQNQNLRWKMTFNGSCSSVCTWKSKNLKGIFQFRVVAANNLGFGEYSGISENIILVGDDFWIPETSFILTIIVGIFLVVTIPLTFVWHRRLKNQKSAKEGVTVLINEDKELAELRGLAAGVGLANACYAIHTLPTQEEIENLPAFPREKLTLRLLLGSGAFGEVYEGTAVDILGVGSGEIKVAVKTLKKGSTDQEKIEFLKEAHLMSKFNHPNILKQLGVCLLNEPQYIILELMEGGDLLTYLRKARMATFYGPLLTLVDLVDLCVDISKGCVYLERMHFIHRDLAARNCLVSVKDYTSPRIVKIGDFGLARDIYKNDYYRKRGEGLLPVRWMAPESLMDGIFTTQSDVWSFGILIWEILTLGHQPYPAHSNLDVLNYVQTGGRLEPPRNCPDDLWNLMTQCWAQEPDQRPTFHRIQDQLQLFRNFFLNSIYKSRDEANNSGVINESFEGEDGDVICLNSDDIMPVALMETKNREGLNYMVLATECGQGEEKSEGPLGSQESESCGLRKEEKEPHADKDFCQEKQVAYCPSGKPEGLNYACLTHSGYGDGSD

## C[C@@H](Sc1cc(-c2ccn(Cc3ccccc3)c(=O)c2)cnc1N)c1c(Cl)ccc(F)c1Cl
KARPAS-299 [1]
  IC50: 0.79 µM

## C[C@@H](Oc1cc(-c2cc[nH]c(=O)c2)cnc1N)c1c(Cl)ccc(F)c1Cl
SH-SY5Y
  IC50: 2.07 µM
KARPAS-299 [1]
  IC50: 0.05 µM
cells
  IC50: 0.75 µM
NCI-H2228
  IC50: 0.64 µM

## CC(Oc1cc(-c2cc[nH]c(=O)c2)cnc1N)c1ccccc1 (stereo not given)
KARPAS-299 [1]
  IC50: 4.4 µM

## CC(Oc1cc(-c2ccn(C)c(=O)c2)cnc1N)c1ccccc1 (stereo not given)
KARPAS-299 [1]
  IC50: 2.86 µM

## C[C@@H](Sc1cc(-c2cc[nH]c(=O)c2)cnc1N)c1c(Cl)ccc(F)c1Cl
KARPAS-299 [1]
  IC50: 0.72 µM

## CCn1ccc(-c2cnc(N)c(O[C@H](C)c3c(Cl)ccc(F)c3Cl)c2)cc1=O
SH-SY5Y
  IC50: 2.51 µM
KARPAS-299 [1]
  IC50: 0.06 µM
cells
  IC50: 1.44 µM
NCI-H2228
  IC50: 1.2 µM

## CC(Oc1cc(-c2ccn(C)c(=O)c2)cnc1N)c1ccncc1 (stereo not given)
KARPAS-299 [1]
  IC50: > 20 µM

## C[C@@H](Sc1cc(-c2ccn(CCN(C)C)c(=O)c2)cnc1N)c1c(Cl)ccc(F)c1Cl
KARPAS-299 [1]
  IC50: 0.28 µM

## CCCn1ccc(-c2cnc(N)c(O[C@H](C)c3c(Cl)ccc(F)c3Cl)c2)cc1=O
SH-SY5Y
  IC50: 2.15 µM
KARPAS-299 [1]
  IC50: 0.11 µM
cells
  IC50: 1.43 µM
NCI-H2228
  IC50: 1.22 µM

## CC(NC(=O)c1cc(-c2ccn(C)c(=O)c2)cnc1N)c1c(Cl)ccc(F)c1Cl (stereo not given)
KARPAS-299 [1]
  IC50: > 20 µM

## Cc1ccc(C(C)Oc2cc(-c3ccn(C)c(=O)c3)cnc2N)cc1 (stereo not given)
KARPAS-299 [1]
  IC50: 7.78 µM

## CC(NC(=O)c1cc(-c2cc[nH]c(=O)c2)cnc1N)c1c(Cl)ccc(F)c1Cl (stereo not given)
KARPAS-299 [1]
  IC50: > 20 µM

## C[C@@H](Sc1cc(-c2ccn(C)c(=O)c2)cnc1N)c1c(Cl)ccc(F)c1Cl
KARPAS-299 [1]
  IC50: 0.4 µM

## C[C@@H](Oc1cc(-c2ccn(Cc3ccccc3)c(=O)c2)cnc1N)c1c(Cl)ccc(F)c1Cl
SH-SY5Y
  IC50: 1.35 µM
KARPAS-299 [1]
  IC50: 0.13 µM
cells
  IC50: 1.02 µM
NCI-H2228
  IC50: 1.3 µM

## Cc1ccc(C(C)Oc2cc(-c3cc[nH]c(=O)c3)cnc2N)cc1 (stereo not given)
KARPAS-299 [1]
  IC50: 10.2 µM

## CC(Oc1cc(-c2ccn(C)c(=O)c2)cnc1N)c1ccc(Cl)cc1 (stereo not given)
KARPAS-299 [1]
  IC50: 20.9 µM

## C[C@@H](Oc1cc(-c2ccn(CCN(C)C)c(=O)c2)cnc1N)c1c(Cl)ccc(F)c1Cl
SH-SY5Y
  IC50: 1.67 µM
KARPAS-299 [2]
  Activity: 81.46%
KARPAS-299 [3]
  Activity: 5.43%
KARPAS-299 [1]
  IC50: 0.04 µM
[4]
  IC50: 0.0023 µM
cells
  IC50: 0.71 µM
NCI-H2228
  IC50: 0.44 µM
KARPAS-299 [5]
  Activity: 8%

## CC(Oc1cc(-c2ccn(C)c(=O)c2)cnc1N)c1ccccn1 (stereo not given)
KARPAS-299 [1]
  IC50: 11.9 µM

## CCOC(=O)Cn1ccc(-c2cnc(N)c(O[C@H](C)c3c(Cl)ccc(F)c3Cl)c2)cc1=O
SH-SY5Y
  IC50: 1.85 µM
KARPAS-299 [1]
  IC50: 0.21 µM
cells
  IC50: 1.23 µM
NCI-H2228
  IC50: 3.32 µM

## CC(Oc1cc(-c2cc[nH]c(=O)c2)cnc1N)c1ccc(Cl)cc1 (stereo not given)
KARPAS-299 [1]
  IC50: 17.8 µM

## C[C@@H](Oc1cc(-c2ccn(C)c(=O)c2)cnc1N)c1c(Cl)ccc(F)c1Cl
SH-SY5Y
  IC50: 1.87 µM
KARPAS-299 [1]
  IC50: 0.04 µM
cells
  IC50: 0.83 µM
NCI-H2228
  IC50: 0.69 µM

## CC(Oc1cc(-c2ccn(C)c(=O)c2)cnc1N)c1cccnc1 (stereo not given)
KARPAS-299 [1]
  IC50: 11.2 µM

## CC(Oc1cc(-c2ccn(Cc3ccccc3)c(=O)c2)cnc1N)c1c(Cl)ccc(F)c1Cl (racemic)
KARPAS-299 [1]
  IC50: 0.32 µM

## CC(Oc1cc(-c2ccn(C)c(=O)c2)cnc1N)c1c(Cl)ccc(F)c1Cl (racemic)
KARPAS-299 [1]
  IC50: 0.2 µM

## CC(Oc1cc(-c2cc[nH]c(=O)c2)cnc1N)c1c(Cl)ccc(F)c1Cl (racemic)
KARPAS-299 [1]
  IC50: 0.12 µM

— ChEMBL document CHEMBL4406858, “Discovery of 2-aminopyridines bearing a pyridone moiety as potent ALK inhibitors to overcome the crizotinib-resistant mutants” (Eur J Med Chem, 2019)
